Usually IC50 stands for the point on the concentration scale where inhibition reaches its midpoint.

The target in this assay is T1, Recombinant human CETP (Homo sapiens, UniProt P11597).
T1 construct: made in house; host or cells: CHO cells (secreted into conditioned medium)
T1 sequence (P11597 18-493): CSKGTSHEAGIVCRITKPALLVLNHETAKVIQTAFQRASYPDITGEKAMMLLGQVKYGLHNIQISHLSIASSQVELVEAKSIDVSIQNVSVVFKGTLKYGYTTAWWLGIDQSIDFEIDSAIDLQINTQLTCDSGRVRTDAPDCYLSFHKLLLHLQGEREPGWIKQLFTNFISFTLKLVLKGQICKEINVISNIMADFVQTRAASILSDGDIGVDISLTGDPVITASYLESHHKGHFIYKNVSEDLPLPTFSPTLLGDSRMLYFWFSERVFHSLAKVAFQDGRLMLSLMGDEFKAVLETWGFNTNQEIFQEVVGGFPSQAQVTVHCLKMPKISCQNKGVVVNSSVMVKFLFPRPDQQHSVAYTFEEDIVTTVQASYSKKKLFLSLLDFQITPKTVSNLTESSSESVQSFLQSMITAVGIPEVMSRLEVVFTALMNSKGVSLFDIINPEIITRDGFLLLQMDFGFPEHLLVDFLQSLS
Kind of assay: CETP in vitro assay (fluorometric assay, Roar Biomedical; cholesterol ester transfer from HDL to LDL). The assay is classed as biochemical. Particulars: recombinant human CETP from CHO cells; 3 hours at 37° C.; fluorescence 485/535 nm; compound concentrations between 1 nM and 30 μM; read-out: IC50 values for inhibition of CETP. As to the method:
CETP inhibitory activity of compounds of the present invention can be determined in a fluorometric assay purchased from Roar Biomedical, Inc. (New York, N.Y., USA). […] Recombinant human CETP was partially purified from medium conditioned by CETP expressing CHO cells. In a 384 well format 2.5 μl of compound solution in DMSO was combined with 2 μl of donor solution, 2 μl of acceptor solution and 0.8 μl of recombinant human CETP solution in a total volume of 100 μl with assay buffer and incubated for 3 hours at 37° C. The fluorescence intensity was measured at excitation wavelength of 485 nm and emission wavelength of 535 nm. IC50 values are calculated from dose effect curves from compound concentrations between 1 nM and 30 μM.
`CC(C)c1nc2c(c3c1[C@@H](c1ccc(C(F)(F)C(F)(F)F)cc1)OC31CCCC1)[C@@H](O)CC(C)(C)C2` [1(65), (3′R,9′S)-4′-isopropyl-7′,7′-dimethyl-3′-(4-(perfluoroethyl)phenyl)-6′,7′,8′,9′-tetrahydro-3′H-spiro[cyclopentane-1,1′-furo[3,4-c]quinolin]-9′-ol]: the half-maximal inhibitory concentration (IC50) worked out at 0.083 µM.
Then `CC(C)c1nc2c(c3c1[C@@H](c1ccc(C(F)(F)F)c(C#N)c1)OC31CCOCC1)[C@@H](O)CC(C)(C)C2` [1(66), 5-((3R,9S)-9-hydroxy-4-isopropyl-7,7-dimethyl-2′,3′,5′,6,6′,7,8,9-octahydro-3H-spiro[furo[3,4-c]quinoline-1,4′-pyran]-3-yl)-2-(trifluoromethyl)benzonitrile], with 0.034 µM.
The value for `CC(C)c1nc2c(c3c1[C@@H](c1ccc(C(F)(F)F)cn1)OC31CCOCC1)[C@@H](O)CC(C)(C)C2` [1(67), (3S,9S)-4-isopropyl-7,7-dimethyl-3-(5-(trifluoromethyl)pyridin-2-yl)-2′,3′,5′,6,6′,7,8,9-octahydro-3H-spiro[furo[3,4-c]quinoline-1,4′-pyran]-9-ol] was 0.161 µM.
The value for `CC(C)c1nc2c(c3c1[C@@H](c1ccc(S(F)(F)(F)(F)F)cc1)OC31CCOCC1)[C@@H](O)CC(C)(C)C2` [1(68), (3R,9S)-4-isopropyl-7,7-dimethyl-3-(4-(pentafluorosulfanyl)phenyl)-2′,3′,5′,6,6′,7,8,9-octahydro-3H-spiro[furo[3,4-c]quinoline-1,4′-pyran]-9-ol] was 0.024 µM.
In the case of `CC(C)c1nc2c(c3c1[C@@H](c1ccc(S(F)(F)(F)(F)F)cc1)OC31CCOCC1)[C@@H](O)CC1(CCC1)C2` [1(69), (3R,9S)-4-isopropyl-7,7-(propan-1,3-diyl)-3-(4-(pentafluorosulfanyl)phenyl)-2′,3′,5′,6,6′,7,8,9-octahydro-3H-spiro[furo[3,4-c]quinoline-1,4′-pyran]-9-ol], the IC50 amounted to 0.014 µM.
The value for `CC1(C)Cc2nc(C3CCOCC3)c3c(c2[C@@H](O)C1)C1(CCOCC1)O[C@@H]3c1ccc(C(C)(C)C)cc1` [1(70), (3R,9S)-3-(4-tert-butylphenyl)-7,7-dimethyl-4-(tetrahydro-2H-pyran-4-yl)-2′,3′,5′,6,6′,7,8,9-octahydro-3H-spiro[furo[3,4-c]quinoline-1,4′-pyran]-9-ol] was 0.057 µM; that for `CC(C)c1nc2c(c3c1[C@@H](c1ccc(S(F)(F)(F)(F)F)cc1)OC31CCCC1)[C@@H](O)CC(C)(C)C2` [1(71), (3′R,9′S)-4′-isopropyl-7′,7′-dimethyl-3′-(4-(pentafluorosulfanyl)phenyl)-6′,7′,8′,9′-tetrahydro-3′H-spiro[cyclopentane-1,1′-furo[3,4-c]quinolin]-9′-ol] was 0.031 µM; that for `N#Cc1cc([C@H]2OC3(CCOCC3)c3c2c(C2CCOCC2)nc2c3[C@@H](O)CC3(CCC3)C2)ccc1C(F)(F)F` [1(72), 5-((3R,9S)-9-hydroxy-7,7-(propan-1,3-diyl)-4-(tetrahydro-2H-pyran-4-yl)-2′,3′,5′,6,6′,7,8,9-octahydro-3H-spiro[furo[3,4-c]quinoline-1,4′-pyran]-3-yl)-2-(trifluoromethyl)benzonitrile] was 0.039 µM.
Then `CC1(C)Cc2nc(C3CCOCC3)c3c(c2[C@@H](O)C1)C1(CCOCC1)O[C@@H]3c1ccc(C(F)(F)F)cn1` [1(73), (3S,9S)-7,7-dimethyl-4-(tetrahydro-2H-pyran-4-yl)-3-(5-(trifluoromethyl)pyridin-2-yl)-2′,3′,5′,6,6′,7,8,9-octahydro-3H-spiro[furo[3,4-c]quinoline-1,4′-pyran]-9-ol], with 1.7 µM; and `CC1(C)Cc2nc(C3CCOCC3)c3c(c2[C@@H](O)C1)C1(CCOCC1)O[C@@H]3c1ccc(C(F)(F)F)c(C#N)c1` [1(74), 5-((3R,9S)-9-hydroxy-7,7-dimethyl-4-(tetrahydro-2H-pyran-4-yl)-2′,3′,5′,6,6′,7,8,9-octahydro-3H-spiro[furo[3,4-c]quinoline-1,4′-pyran]-3-yl)-2-(trifluoromethyl)benzonitrile], with 0.1 µM; and `O[C@H]1CC2(CCC2)Cc2nc(C3CCOCC3)c3c(c21)C1(CCOCC1)O[C@@H]3c1ccc(C(F)(F)F)cn1` [1(75), (3S,9S)-7,7-(propan-1,3-diyl)-4-(tetrahydro-2H-pyran-4-yl)-3-(5-(trifluoromethyl)pyridin-2-yl)-2′,3′,5′,6,6′,7,8,9-octahydro-3H-spiro[furo[3,4-c]quinoline-1,4′-pyran]-9-ol], with 0.288 µM.
Then `CC1(C)Cc2nc(C3CCOCC3)c3c(c2[C@@H](O)C1)C1(CCOCC1)O[C@@H]3c1ccc(C(F)(F)F)nc1` [1(76), (3R,9S)-7,7-dimethyl-4-(tetrahydro-2H-pyran-4-yl)-3-(6-(trifluoromethyl)pyridin-3-yl)-2′,3′,5′,6,6′,7,8,9-octahydro-3H-spiro[furo[3,4-c]quinoline-1,4′-pyran]-9-ol], with 0.886 µM; and `O[C@H]1CC2(CCC2)Cc2nc(C3CCOCC3)c3c(c21)C1(CCOCC1)O[C@@H]3c1ccc(C(F)(F)F)cc1` [1(77), (3R,9S)-7,7-(propan-1,3-diyl)-4-(tetrahydro-2H-pyran-4-yl)-3-(4-(trifluoromethyl)phenyl)-2′,3′,5′,6,6′,7,8,9-octahydro-3H-spiro[furo[3,4-c]quinoline-1,4′-pyran]-9-ol], with 0.039 µM; and `O[C@H]1CC2(CCC2)Cc2nc(C3CCOCC3)c3c(c21)C1(CCOCC1)O[C@@H]3c1ccc(C(F)(F)F)nc1` [1(78), (3R,9S)-7,7-(propan-1,3-diyl)-4-(tetrahydro-2H-pyran-4-yl)-3-(6-(trifluoromethyl)pyridin-3-yl)-2′,3′,5′,6,6′,7,8,9-octahydro-3H-spiro[furo[3,4-c]quinoline-1,4′-pyran]-9-ol], with 0.362 µM.
`CC(C)c1nc2c(c3c1[C@@H](c1ccc(C(F)(F)F)c(C#N)c1)OC31CCOCC1)[C@@H](O)CC1(CCC1)C2` [1(79), 5-((3R,9S)-9-hydroxy-4-isopropyl-7,7-(propan-1,3-diyl)-2′,3′,5′,6,6′,7,8,9-octahydro-3H-spiro[furo[3,4-c]quinoline-1,4′-pyran]-3-yl)-2-(trifluoromethyl)benzonitrile]: the IC50 came out at 0.018 µM.
In the case of `CC1(C)Cc2nc(C(C)(C)C)c3c(c2[C@@H](O)C1)C1(CCOCC1)O[C@@H]3c1ccc(C(F)(F)F)cc1` [1(80), (3R,9S)-4-tert-butyl-7,7-dimethyl-3-(4-(trifluoromethyl)phenyl)-2′,3′,5′,6,6′,7,8,9-octahydro-3H-spiro[furo[3,4-c]quinoline-1,4′-pyran]-9-ol], the half-inhibitory concentration (IC50) was found to be 0.047 µM.
`COC(C)c1nc2c(c3c1[C@@H](c1ccc(C(F)(F)F)cc1)OC31CCOCC1)[C@@H](O)CC(C)(C)C2` (stereo partly drawn) [1(81), (3R,9S)-4-(1-methoxyethyl)-7,7-dimethyl-3-(4-(trifluoromethyl)phenyl)-2′,3′,5′,6,6′,7,8,9-octahydro-3H-spiro[furo[3,4-c]quinoline-1,4′-pyran]-9-ol]: the IC50 was 0.108 µM.
Then `COCc1nc2c(c3c1[C@@H](c1ccc(C(F)(F)F)cc1)OC31CCOCC1)[C@@H](O)CC(C)(C)C2` [1(82), (3R,9S)-4-(methoxymethyl)-7,7-dimethyl-3-(4-(trifluoromethyl)phenyl)-2′,3′,5′,6,6′,7,8,9-octahydro-3H-spiro[furo[3,4-c]quinoline-1,4′-pyran]-9-ol], with 0.786 µM; and `COC(C)(C)c1nc2c(c3c1[C@@H](c1ccc(C(F)(F)F)cc1)OC31CCOCC1)[C@@H](O)CC(C)(C)C2` [1(83), (3R,9S)-4-(2-methoxypropan-2-yl)-7,7-dimethyl-3-(4-(trifluoromethyl)phenyl)-2′,3′,5′,6,6′,7,8,9-octahydro-3H-spiro[furo[3,4-c]quinoline-1,4′-pyran]-9-ol], with 0.025 µM; and `CC(C)c1nc2c(c3c1[C@@H](c1ccc(C(F)(F)F)nc1)OC31CCCC1)[C@@H](O)CC(C)(C)[C@H]2O` [4(1), (3′R,6′R,9′S)-4′-isopropyl-7′,7′-dimethyl-3′-(6-(trifluoromethyl)pyridin-3-yl)-6′,7′,8′,9′-tetrahydro-3′H-spiro[cyclopentane-1,1′-furo[3,4-c]quinoline]-6′,9′-diol], with 0.127 µM.
The value for `CC(C)c1nc2c(c3c1[C@@H](c1ccc(C(F)(F)F)cc1)OC31CCOCC1)[C@@H](O)CC(C)(C)[C@H]2O` [4(2), (3R,6R,9S)-4-isopropyl-7,7-dimethyl-3-(4-(trifluoromethyl)phenyl)-2′,3′,5′,6,6′,7,8,9-octahydro-3H-spiro[furo[3,4-c]quinoline-1,4′-pyran]-6,9-diol] was 0.025 µM.
Then `CC(C)c1nc2c(c3c1[C@@H](c1ccc(C(C)(C)C)cc1)OC31CCCC1)[C@@H](O)CC(C)(C)[C@H]2O` [4(3), (3′R,6′R,9′S)-3′-(4-tert-butylphenyl)-4′-isopropyl-7′,7′-dimethyl-6′,7′,8′,9′-tetrahydro-3′H-spiro[cyclopentane-1,1′-furo[3,4-c]quinoline]-6′,9′-diol], with 0.021 µM.

The record behind these values is patent US9029544B2, “Tricyclic pyridine derivatives, medicaments containing such compounds, their use and process for their preparation” (Boehringer Ingelheim International GmbH, priority 2010, dated 2015).
